Experimental data published in patent US8247170B2, “Detection of penicillin tolerance in Group B Streptococcus: single nucleotide polymorphisms in penicillin binding protein 4” (priority 2008, dated 2012).

System: GBS laboratory strains and clinical isolates
Test: Microbroth (96-well) penicillin tolerance assay
Format: cell-based, Group B Streptococcus
Conditions: for Penicillin Phenotypes: 48 hr penicillin, 24 hr drug free culture; for replication or viability after re-plate and additional 24-hour culture (FIG. 1): penicillin G 1× to 256×MIC90 48 hours
Method: An in vitro method involving microbroth (96-well) culture was used to develop a penicillin tolerance assay. In this assay, the inventors tested three laboratory bacterial strains (i.e., GBS strains A909, NEM316, and O90R). These cells were commercially obtained from ATCC source. Bacterial cells were cultured overnight for 18 hours at 37° C. in Todd-Hewitt Broth (THB). Subcultures in THB were subsequently grown to exponential phase (OD600˜0.3) at 37° C. Cell cultures were then exposed to different concentrations of penicillin G (Sigma, St. Louis, Mo.). […] Cell cultures were dispersed. A dilution (i.e., 1 to 20) of cells was re-plated into new wells containing fresh THB with 500 U Penase (to destroy residual penicillin). Cell cultures were allowed to grow for an additional 24 hours at 37° C. Assays were repeated four (4) times and standard bar represents standard deviations.
Using this established 96-well assay (i.e., microbroth assay), 115 clinical isolates of GBS were further tested. These were cervico-vaginal rectal clinical isolates (obtained from pregnant humans), and characterized their penicillin tolerance. The phenotype definitions (above) were used to identify the penicillin tolerant isolates.
(I) Bacterial Strains and Culture Conditions. GBS strains A909 (serotype IA), 515 (serotype IA), NEM316 (serotype III), COHI (serotype III), 2603V/R (serotype V) and O90R (non-typable) were used in this study. E. coli Top10 cells were used for the recombination experiments. GBS was cultured in Todd Hewitt broth (THB) or Tryptic Soy 5% sheep blood (TS) media and E. coli in Luria-broth (LB) medium or agar. Antibiotics were used at the following concentrations: for GBS—penicillin G (MIC90 0.06 μg ml^−1), ampicillin (MIC90 0.12 μg ml^−1), vancomycin (MIC90 2 μg ml^−1), cefazolin (MIC90 1 μg ml^−1) and chloramphenicol (5 μg ml^−1); for E. coli—ampicillin (50 μg ml^−1) and chloramphenicol (5 μg ml^−1). Both GBS and E. coli cultures were grown at 37° C. (II) Tolerance Using the MBC:MIC Ratio Method. Three GBS laboratory strains (i.e., A909, NEM316, and O90R) were cultured overnight for 18 h at 37° C. in THB. Subcultures in THB were subsequently grown to exponential phase (OD600˜0.3; i.e. 5×10^5 cfu/ml) at 37° C. Cell cultures were then exposed to different concentrations of antibiotics (Penicillin G, Ampicillin, Cefozolin or Vancomycin). […] Cell cultures were dispersed every 18 h before OD600 was measured to determine the lowest concentration of antibiotic with 90% growth inhibition (MIC90). Antibiotic treated cells (8 μl) from each well were re-suspended into PBS (100 μl) and plated (54 μl) on TS agar plates and allowed to grow for an additional 24 h at 37° C. Cell count was performed to determine the lowest concentration of antibiotic with 90% killing of original inoculums (MBC90). (III) Penicillin Killing and Regrowth Tolerance Assay by Microbroth Dilution. Three GBS laboratory strains (i.e., A909, NEM316, and O90R) were cultured overnight for 18 h at 37° C. in THB. Subcultures in THB were subsequently grown to exponential phase (OD600˜0.3) at 37° C. Cell cultures were then exposed to different concentrations of Penicillin G (Sigma, St. Louis, Mo.). […] Cell cultures were dispersed. A 1:20 dilution of cells was re-plated into new wells containing fresh THB with 500 U Penase (to degrade residual penicillin). Cell cultures were allowed to re-grow for an additional 24 h at 37° C. before the OD600 was measured. (IV) Measuring Cell Viability by Determining ATP Concentration. GBS strains were cultured for 18 h at 37° C. in THB. These cells were inoculated into fresh THB and subsequently allowed to grow to exponential phase (OD600 0.25-0.3) at 37° C. One ml of each culture was centrifuged at 5,000×g for 4 min. The cell pellet was re-suspended in ATP-free water. Cellular ATP was extracted using trichloroacetic acid (TCA) (5%) for 2 min and subsequently neutralized with Tris-EDTA-0.1M NaOAc, pH 7.75 to 10×TCA volume. […]

CC1(C)S[C@@H]2[C@H](NC(=O)Cc3ccccc3)C(=O)N2[C@H]1C(=O)O [Penicillin G]
% GBS Clinical Strains, Intermediate (115 clinical isolates): 8% | % GBS Clinical Strains, Paradoxical Effect-Penicillin Tolerance (PE-PT) (115 clinical isolates): 27% | % GBS Clinical Strains, Penicillin Tolerance (PT) (115 clinical isolates): 16% | % GBS Clinical Strains, Susceptible (S) (115 clinical isolates): 49% | Penicillin Phenotypes (GBS laboratory strain A909): Susceptible (S) | Penicillin Phenotypes (GBS laboratory strain NEM316): Paradoxical Effect-Penicillin Tolerance (PE-PT) | Penicillin Phenotypes (GBS laboratory strain O90R): Penicillin Tolerance (PT) | replication or viability after re-plate and additional 24-hour culture (FIG. 1) (GBS strain A909): did not replicate | replication or viability after re-plate and additional 24-hour culture (FIG. 1) (GBS strain NEM316, viability lost at 16× to 64×MIC90): paradoxical effect | replication or viability after re-plate and additional 24-hour culture (FIG. 1) (GBS strain O90R): did not inhibit the replication or viability
